biological target: TRPM8 (Rattus norvegicus, UniProt Q8R455); assay: Confirmation test of inhibitory effects on icilin-induced wet-dog shakes; assay type: in vivo, female SD rats; design: test compounds were orally administered to female SD rats; from tissue; host or cells: whole animal (female SD rats), endogenous channel; conditions: dose 3 mg/kg orally, icilin 1 mg/kg i.p. after 1 hour, shakes counted for 5 minutes
Method: Test compounds were dissolved in dimethylacetamide (wako), and 0.5% methylcellulose solution (wako) was added to make the solution or suspension containing 5% of dimethylacetamide. At a dose of 3 or 10 mg/kg/5 mL of test compounds were orally administered to female SD rats. After 1 hour, wet-dog shakes were induced by the intrapenitoneal injection of icilin (1 mg/kg) which was dissolved in polyethylene glycol 400 (wako). From 5 minutes after the administration of icilin, wet-dog shakes were counted for 5 minutes. For control example, vehicle (a mixture of dimethylacetamide (wako): 0.5% methylcellulose (wako)=5:95) was administrated similarly, and the number of wet-dog shakes was counted in the same manner. A percent inhibition of wet-dog shakes by test compound was calculated from the following formula: [1-(test compound wet-dog shake count/vehicle wet-dog shake count)]×100.

Sequence of TRPM8 (Q8R455 whole entry): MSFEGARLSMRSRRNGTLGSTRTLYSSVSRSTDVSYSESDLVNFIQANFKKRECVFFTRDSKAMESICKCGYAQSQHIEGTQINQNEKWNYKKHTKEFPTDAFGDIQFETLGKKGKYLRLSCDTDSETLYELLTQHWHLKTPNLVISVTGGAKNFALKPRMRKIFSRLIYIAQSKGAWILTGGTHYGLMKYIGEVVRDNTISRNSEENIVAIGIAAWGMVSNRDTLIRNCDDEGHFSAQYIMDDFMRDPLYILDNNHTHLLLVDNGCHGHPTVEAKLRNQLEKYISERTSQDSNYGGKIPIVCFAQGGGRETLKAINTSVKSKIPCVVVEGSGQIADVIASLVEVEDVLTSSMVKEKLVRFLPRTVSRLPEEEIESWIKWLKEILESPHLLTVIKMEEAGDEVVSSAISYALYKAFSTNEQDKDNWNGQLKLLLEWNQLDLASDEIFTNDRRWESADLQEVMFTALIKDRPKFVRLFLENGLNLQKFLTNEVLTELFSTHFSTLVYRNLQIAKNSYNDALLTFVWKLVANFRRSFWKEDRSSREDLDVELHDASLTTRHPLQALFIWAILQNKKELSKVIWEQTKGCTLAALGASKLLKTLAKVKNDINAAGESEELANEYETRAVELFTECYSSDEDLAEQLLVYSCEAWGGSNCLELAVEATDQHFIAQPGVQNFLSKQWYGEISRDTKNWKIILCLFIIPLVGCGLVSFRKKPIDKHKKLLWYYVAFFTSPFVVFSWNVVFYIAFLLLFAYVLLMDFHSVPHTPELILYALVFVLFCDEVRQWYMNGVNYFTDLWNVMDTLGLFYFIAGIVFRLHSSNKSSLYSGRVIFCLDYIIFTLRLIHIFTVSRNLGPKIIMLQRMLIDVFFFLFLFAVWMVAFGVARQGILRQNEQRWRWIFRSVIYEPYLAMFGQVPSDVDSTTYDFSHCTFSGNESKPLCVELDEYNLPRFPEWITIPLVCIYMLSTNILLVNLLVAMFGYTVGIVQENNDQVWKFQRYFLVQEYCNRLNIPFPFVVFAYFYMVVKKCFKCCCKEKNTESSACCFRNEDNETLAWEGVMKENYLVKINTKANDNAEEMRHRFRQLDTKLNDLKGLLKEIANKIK

In order of falling “% inhibition of Wet-Dog Shake” value:
1. NC(=O)[C@@H](c1ccccc1)N(C(=O)c1cccnc1Cl)[C@@H]1CCc2c(F)cc(Cl)cc21 [Example 2-93LP, N-[(R)-carbamoylphenylmethyl]-2-chloro-N-[(R)-6-chloro-4-fluoroindan-1-yl]nicotinamide]  100%
2. NC(=O)[C@@H](c1ccccc1)N(C(=O)c1cccc2c1OCO2)[C@@H]1CCc2c(F)cc(Cl)cc21 [Example 2-173LP, N-[(R)-carbamoylphenylmethyl]-N-[(R)-6-chloro-4-fluoroindan-1-yl]benzo[1,3]dioxole-4-carboxamide]  99%
3. COc1ncccc1C(=O)N([C@@H]1CCc2c(F)cc(F)cc21)[C@@H](C(N)=O)c1ccccc1 [Example 2-36LP, N-[(R)-carbamoylphenylmethyl]-N-[(R)-4,6-difluoroindan-1-yl]-2-methoxynicotinamide]  74%
4. CNc1ncccc1C(=O)N([C@@H]1CCc2c(F)cc(Cl)cc21)[C@@H](C(N)=O)c1ccccc1 [Example 2-107LP, N-[(R)-carbamoylphenylmethyl]-N-[(R)-6-chloro-4-fluoroindan-1-yl]-2-(methylamino)nicotinamide]  68%
5. CSc1ncccc1C(=O)N([C@@H]1CCc2c(F)cc(Cl)cc21)[C@@H](C(N)=O)c1ccccc1 [Example 2-128LP, N-[(R)-carbamoylphenylmethyl]-N-[(R)-6-chloro-4-fluoroindan-1-yl]-2-(methylsulfanyl)nicotinamide]  65%
6. Cc1cnccc1C(=O)N([C@@H]1CCc2c(F)cc(Cl)cc21)[C@@H](C(N)=O)c1ccccc1 [Example 2-167LP, N-[(R)-carbamoylphenylmethyl]-N-[(R)-6-chloro-4-fluoroindan-1-yl]-3-methylisonicotinamide]  64%
7. COc1ccccc1C(=O)N([C@@H]1CCc2c(F)cc(Cl)cc21)[C@@H](C(N)=O)c1cccnc1 [Example 2-118LP, N-[(R)-carbamoylpyridin-3-ylmethyl]-N-[(R)-6-chloro-4-fluoroindan-1-yl]-2-methoxybenzamide]  62%
8. Cn1nccc1C(=O)N([C@@H]1CCc2c(F)cc(Cl)cc21)[C@@H](C(N)=O)c1ccccc1 [Example 2-133LP, N-[(R)-carbamoylphenylmethyl]-N-[(R)-6-chloro-4-fluoroindan-1-yl]-2-methyl-2H-pyrazole-3-carboxamide]  55%
9. Cc1ncccc1C(=O)N([C@@H]1CCc2ccc(Cl)cc21)[C@@H](C(N)=O)c1ccccc1 [Example 2-137LP, N-[(R)-carbamoylphenylmethyl]-N-[(R)-6-chloroindan-1-yl]-2-methylnicotinamide]  53%
10. Cc1ncsc1C(=O)N([C@@H]1CCc2c(F)cc(F)cc21)[C@@H](C(N)=O)c1ccccc1 [Example 2-132LP, N-[(R)-carbamoylphenylmethyl]-N-[(R)-4,6-difluoroindan-1-yl]-4-methylthiazole-5-carboxamide]  49%
11. Cc1cnoc1C(=O)N([C@@H]1CCc2c(F)cc(Cl)cc21)[C@@H](C(N)=O)c1ccccc1 [Example 2-150LP, N-[(R)-carbamoylphenylmethyl]-N-[(R)-6-chloro-4-fluoroindan-1-yl]-4-methylisoxazole-5-carboxamide]  49%
12. Cc1ccncc1C(=O)N([C@@H]1CCc2c(F)cc(Cl)cc21)[C@@H](C(N)=O)c1ccccc1 [Example 2-100LP, N-[(R)-carbamoylphenylmethyl]-N-[(R)-6-chloro-4-fluoroindan-1-yl]-4-methylnicotinamide]  47%
13. Cc1ncsc1C(=O)N([C@@H]1CCc2ccc(Cl)cc21)[C@@H](C(N)=O)c1ccccc1 [Example 2-88LP, N-[(R)-carbamoylphenylmethyl]-N-[(R)-6-chloroindan-1-yl]-4-methylthiazole-5-carboxamide]  46%
14. Cc1cccnc1C(=O)N([C@@H]1CCc2c(F)cc(Cl)cc21)[C@@H](C(N)=O)c1ccccc1 [Example 2-152LP, N-[(R)-carbamoylphenylmethyl]-N-[(R)-6-chloro-4-fluoroindan-1-yl]-3-methylpyridine-2-carboxamide]  44%
15. NC(=O)[C@@H](c1cccnc1)N(C(=O)c1cccc2c1OCO2)[C@@H]1CCc2c(F)cc(Cl)cc21 [Example 2-172LP, N-[(R)-carbamoylpyridin-3-ylmethyl]-N-[(R)-6-chloro-4-fluoroindan-1-yl]benzo[1,3]dioxole-4-carboxamide]  43%
16. Cc1ncccc1C(=O)N([C@@H]1CCc2c(F)cc(Cl)cc21)[C@@H](C(N)=O)c1cccc(F)c1 [Example 2-161LP, N-[(R)-carbamoyl-(3-fluorophenyl)methyl]-N-[(R)-6-chloro-4-fluoroindan-1-yl]-2-methylnicotinamide]  42%
17. CSc1ncccc1C(=O)N([C@@H]1CCc2ccc(Cl)cc21)[C@@H](C(N)=O)c1ccccc1 [Example 2-125LP, N-[(R)-carbamoylphenylmethyl]-N-[(R)-6-chloroindan-1-yl]-2-(methylsulfanyl)nicotinamide]  37%
18. NC(=O)[C@@H](c1cccnc1)N(C(=O)c1ccccc1)[C@@H]1CCc2ccc(Cl)cc21 [Example 2-87LP, N-[(R)-carbamoylpyridin-3-ylmethyl]-N-[(R)-6-chloroindan-1-yl]benzamide]  36%
19. Cc1ncncc1C(=O)N([C@@H]1CCc2c(F)cc(Cl)cc21)[C@@H](C(N)=O)c1ccccc1 [Example 2-154LP, N-[(R)-carbamoylphenylmethyl]-N-[(R)-6-chloro-4-fluoroindan-1-yl]-4-methylpyrimidine-5-carboxamide]  36%
20. Cc1ncccc1C(=O)N([C@@H]1CCc2c(F)cc(Cl)cc21)[C@@H](C(N)=O)c1cccc(O)c1 [Example 2-168LP, N-[(R)-carbamoyl-(3-hydroxyphenyl)methyl]-N-[(R)-6-chloro-4-fluoroindan-1-yl]-2-methylnicotinamide]  36%
21. NC(=O)[C@@H](c1cccnc1)N(C(=O)c1ccccc1Cl)[C@@H]1CCc2c(F)cc(Cl)cc21 [Example 2-97LP, N-[(R)-carbamoylpyridin-3-ylmethyl]-2-chloro-N-[(R)-6-chloro-4-fluoroindan-1-yl]benzamide]  35%
22. NC(=O)[C@@H](c1ccccc1)N(C(=O)c1ccccc1)[C@@H]1COc2c(F)cc(Cl)cc21 (racemic) [Example 2-252M, N-[(RS)-carbamoylphenylmethyl]-N-[(SR)-5-chloro-7-fluoro-2,3-dihydrobenzofuran-3-yl]benzamide]  31%

same assay, conditions: dose 10 mg/kg orally, icilin 1 mg/kg i.p. after 1 hour, shakes counted for 5 minutes

In order of falling “% inhibition of Wet-Dog Shake” value:
1. NC(=O)[C@@H](c1ccccc1)N(C(=O)c1cccnc1N)[C@@H]1CCc2ccc(Cl)cc21 [Example 2-33LP, 2-amino-N-[(R)-carbamoylphenylmethyl]-N-[(R)-6-chloroindan-1-yl]nicotinamide]  98%
2. COc1cc(F)c2c(c1)[C@H](N(C(=O)c1cccnc1)[C@@H](C(N)=O)c1ccccc1)CC2 [Example 2-39LP, N-[(R)-carbamoylphenylmethyl]-N-[(R)-4-fluoro-6-methoxyindan-1-yl]nicotinamide]  98%
3. NC(=O)[C@@H](c1ccccc1)N(C(=O)c1cccnc1N)[C@@H]1CCc2ccc(OC(F)F)cc21 [Example 2-27LP, 2-amino-N-[(R)-carbamoylphenylmethyl]-N-[(R)-6-difluoromethoxyindan-1-yl]nicotinamide]  95%
4. Cc1cc(F)c2c(c1)[C@H](N(C(=O)c1cccnc1)[C@@H](C(N)=O)c1ccccc1)CC2 [Example 2-40LP, N-[(R)-carbamoylphenylmethyl]-N-[(R)-4-fluoro-6-methylindan-1-yl]nicotinamide]  95%
5. NC(=O)[C@@H](c1cccnc1)N(C(=O)c1ccccc1)[C@@H]1CCc2c(F)cc(F)cc21 [Example 2-76LP, N-[(R)-carbamoylpyridin-3-ylmethyl]-N-[(R)-4,6-difluoroindan-1-yl]benzamide]  95%
6. NC(=O)[C@@H](c1ccccc1)N(C(=O)c1ccccc1)[C@@H]1CCc2ccc(OC(F)F)cc21 [Example 2-11LP, N-[(R)-carbamoylphenylmethyl]-N-[(R)-6-difluoromethoxyindan-1-yl]benzamide]  85%
7. NC(=O)[C@@H](c1ccccc1)N(C(=O)c1cccnc1)[C@@H]1CCc2ccc(OC(F)F)cc21 [Example 2-26LP, N-[(R)-carbamoylphenylmethyl]-N-[(R)-6-difluoromethoxyindan-1-yl]nicotinamide]  83%
8. NC(=O)[C@@H](c1ccccc1)N(C(=O)c1cncs1)[C@@H]1CCc2ccc(Cl)cc21 [Example 2-71LP, N-[(R)-carbamoylphenylmethyl]-N-[(R)-6-chloroindan-1-yl]thiazole-5-carboxamide]  83%
9. COc1ccc2c(c1)[C@H](N(C(=O)c1cccnc1)[C@@H](C(N)=O)c1ccccc1)CC2 [Example 1-6, N-[(R)-Carbamoylphenylmethyl]-N-[(R)-6-methoxyindan-1-yl]nicotinamide]  64%
10. NC(=O)[C@@H](c1ccccc1)N(C(=O)c1cccnc1)[C@@H]1CCc2c(F)cccc21 [Example 2-56LP, N-[(R)-carbamoylphenylmethyl]-N-[(R)-4-fluoroindan-1-yl]nicotinamide]  50%

Reference: patent US9458092B2, “α-Substituted glycinamide derivative” (KISSEI PHARMACEUTICAL CO., LTD., priority 2013, dated 2016)
